The source of these data is patent US9776964B2, “Phenoxyethyl cyclic amine derivatives and their activity as EP4 receptor modulators” (Eli Lilly and Company, priority 2013, dated 2017).

Assay [1] addresses T1, human EP4 (Homo sapiens, UniProt P35408). The assay can be described thus: In vitro binding to human EP4 ([3H]-PGE2 displacement, membranes). Particulars: HEK293 membranes, geometric mean ± SD, n = 6, read-out: hEP4, Ki. Also noted: expressed in transfected cells. On the procedure:
(§1) hEP1 and hEP4 membranes are prepared from recombinant HEK293 cells stably expressing human EP1 (Genbank accession number AY275470) or EP4 (Genbank accession number AY429109) receptors. hEP2 and hEP3 membranes are prepared from HEK293 cells transiently transfected with EP2 (Genbank accession number AY275471) or EP3 (isoform VI: Genbank accession number AY429108) receptor plasmids. Frozen cell pellets are homogenized in homogenization buffer using a Teflon/glass homogenizer. Membrane protein is aliquoted and quick frozen on dry ice prior to storage at −80° C. […]
(§2) Kd values for [3H]-PGE2 binding to each receptor are determined by saturation binding studies or homologous competition. […] Nonspecific binding is calculated by comparing binding in the presence and absence of 2 μM of PGE2. The membranes are harvested by filtration (TomTek harvester), washed 4 times with cold buffer (10 mM MES pH 6.0 with KOH, 10 mM MgCl2), dried in a 60° C. oven, and the radioactivity is quantified as counts per minute (CPM) using a TopCount detector. Percent specific binding is calculated as the percent of the binding in the absence of any inhibitor, corrected for binding in the presence of 2 uM of PGE2. […] Results are expressed as the geometric mean±standard deviation; n=number of independent determinations. The standard deviation is calculated by the delta method, being SDlog Ki×geometric mean×ln(10).

For a further assay, the target named is T2, human EP3 (isoform VI) (Homo sapiens, UniProt P43115).
T2 sequence (P43115 1-359): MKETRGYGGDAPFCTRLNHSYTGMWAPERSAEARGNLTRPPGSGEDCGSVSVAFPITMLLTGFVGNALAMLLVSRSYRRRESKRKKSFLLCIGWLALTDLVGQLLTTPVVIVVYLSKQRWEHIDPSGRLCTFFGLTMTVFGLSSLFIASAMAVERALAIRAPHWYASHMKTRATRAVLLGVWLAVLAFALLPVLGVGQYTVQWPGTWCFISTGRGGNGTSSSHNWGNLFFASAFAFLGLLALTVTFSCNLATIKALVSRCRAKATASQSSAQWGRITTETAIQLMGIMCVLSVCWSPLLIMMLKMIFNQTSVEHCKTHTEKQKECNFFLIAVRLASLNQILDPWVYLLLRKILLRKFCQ
The assay can be described thus: In vitro binding to human EP3 ([3H]-PGE2 displacement, membranes). On the procedure: as §1, §2

Assay [2] deals with T1, human EP4. The assay can be described thus: In vitro human EP4 functional antagonist activity (inhibition of PGE2-stimulated cAMP production, HTRF). Type of assay: cell-based. More on the design: expressed in transfected cells. Particulars: HEK293 cells expressing human EP4, EC80 of PGE2 (0.188 nM); geometric mean ± SD, n=6; read-out: IC50 measured at human EP4 (PGE2-stimulated cAMP production). On the procedure: Assays are conducted in recombinant HEK293 cells stably expressing human EP4 receptor. The cell lines are maintained by culturing in DMEM with high glucose and pyridoxine hydrochloride (Invitrogen) supplemented with 10% fetal bovine serum (FBS), 1 mM sodium pyruvate, 10 mM HEPES, […] and 2 mM L-glutamine. Confluent cultures are grown at 37° C. in an atmosphere containing 5% CO2. Cells are harvested using 2.5% Trypsin-EDTA, suspended in freeze media (FBS with 6% DMSO) at 10^7 cells/mL and aliquots are stored in liquid nitrogen. Just before assay, cells are thawed in DMEM, centrifuged, and resuspended in cAMP buffer.
The inhibition of PGE2-stimulated cAMP production by EP4 antagonists is measured using HTRF; (Cisbio catalog #62AM4PEB). […] The HTRF signal is detected using an EnVision® plate reader (Perkin-Elmer) to calculate the ratio of fluorescence at 665 nm to 620 nm. […] Results are expressed as the geometric mean±standard deviation; n=number of independent determinations. The standard deviation is calculated by the delta method, being SDlog Ki×geometric mean×ln(10).

Another assay deals with T3, human EP2 (Homo sapiens, UniProt P43116).
T3 construct: expressed in transfected cells; host or cells: HEK293 (transient)
T3 sequence (P43116 whole entry): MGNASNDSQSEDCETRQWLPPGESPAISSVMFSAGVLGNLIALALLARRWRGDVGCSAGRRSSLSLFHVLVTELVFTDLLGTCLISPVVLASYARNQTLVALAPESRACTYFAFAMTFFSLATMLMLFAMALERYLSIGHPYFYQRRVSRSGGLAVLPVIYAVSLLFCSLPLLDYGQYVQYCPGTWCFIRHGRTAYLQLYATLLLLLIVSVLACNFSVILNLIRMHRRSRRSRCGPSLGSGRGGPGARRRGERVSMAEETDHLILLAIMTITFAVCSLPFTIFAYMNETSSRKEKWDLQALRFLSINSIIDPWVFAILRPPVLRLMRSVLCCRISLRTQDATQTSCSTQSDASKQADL
Nature of the assay: In vitro binding to human EP2 ([3H]-PGE2 displacement, membranes). Particulars: HEK293 membranes, n = 1, read-out: hEP2, Ki. On the procedure: as §1, §2

Assay [3] addresses T1, human EP4. Nature of the assay: In vitro antagonist activity in human whole blood (reversal of PGE2 inhibition of LPS-induced TNFα production). The format is cell-based. More on the design: Blood is collected from normal volunteer donors into sodium heparin vacutainer tubes; from tissue; host or cells: human whole blood from volunteer donors. Particulars: 10 μg/mL LPS + 10 nM PGE2, 20-24 hours, geometric mean ± SD, n=6, read-out: IC50 in human blood TNFα induction assay. The text has this:
The inhibitory effects of PGE2 on LPS-induced TNFα production from macrophages/monocytes are believed to be mediated by EP4 receptors (See Murase, A., et al., Life Sciences, 82:226-232 (2008)). The ability of the compound of Example 8 to reverse the inhibitory effect of PGE2 on LPS-induced TNFα production in human whole blood is an indicia of functional activity.
Blood is collected from normal volunteer donors into sodium heparin vacutainer tubes. Donors have not taken NSAIDs or celecoxib within 48 hours or glucocorticoids within two weeks of the donation. All tubes/donor are pooled into 50 mL Falcon conical centrifuge tubes and 98 μL/well is distributed into 96-well tissue culture plates (Falcon 3072). […] TNFα levels in 2 μL plasma are quantified by a commercially available enzyme immunoassay (R&D Systems DY210), using Immulon 4 HBX plates (Thermo 3855) and 3,3′,5,5′ tetramethylbiphenyl-4,4′-diamine substrate (KPL 50-76-03). The plates are read at A450-A650 on a plate reader (Molecular Devices Versamax) using SOFTmaxPRO (v. 4.3.1) software. IC50s are calculated using Graphpad Prism (v. 4) nonlinear regression, sigmoidal dose response curve fitting. Results are expressed as the geometric mean±standard deviation; n=number of independent determinations The standard deviation is calculated by the delta method, being SDlog Ki×geometric mean×ln(10).

Another assay concerns the target T4, human EP1 (Homo sapiens, UniProt P34995).
T4 construct: expressed in transfected cells
T4 sequence (P34995 1-402): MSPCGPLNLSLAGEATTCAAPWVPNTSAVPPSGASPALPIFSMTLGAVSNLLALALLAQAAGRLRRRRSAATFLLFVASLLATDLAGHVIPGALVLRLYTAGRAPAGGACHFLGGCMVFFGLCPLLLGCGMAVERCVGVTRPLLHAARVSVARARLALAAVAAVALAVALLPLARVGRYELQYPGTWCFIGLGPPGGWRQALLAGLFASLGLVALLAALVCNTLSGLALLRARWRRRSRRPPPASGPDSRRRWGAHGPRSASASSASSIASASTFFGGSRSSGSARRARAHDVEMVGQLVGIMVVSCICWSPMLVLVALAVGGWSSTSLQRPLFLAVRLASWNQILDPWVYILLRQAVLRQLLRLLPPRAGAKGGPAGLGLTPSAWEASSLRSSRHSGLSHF
Nature of the assay: In vitro binding to human EP1 ([3H]-PGE2 displacement, membranes). The note with it: HEK293 membranes, n = 1, read-out: hEP1, Ki. How it is done:
as §1, §2

Structures can show the parent of a compound that is named as a salt. Bounds are passed on as bounds.

T1 sequence (P35408 whole entry, canonical isoform): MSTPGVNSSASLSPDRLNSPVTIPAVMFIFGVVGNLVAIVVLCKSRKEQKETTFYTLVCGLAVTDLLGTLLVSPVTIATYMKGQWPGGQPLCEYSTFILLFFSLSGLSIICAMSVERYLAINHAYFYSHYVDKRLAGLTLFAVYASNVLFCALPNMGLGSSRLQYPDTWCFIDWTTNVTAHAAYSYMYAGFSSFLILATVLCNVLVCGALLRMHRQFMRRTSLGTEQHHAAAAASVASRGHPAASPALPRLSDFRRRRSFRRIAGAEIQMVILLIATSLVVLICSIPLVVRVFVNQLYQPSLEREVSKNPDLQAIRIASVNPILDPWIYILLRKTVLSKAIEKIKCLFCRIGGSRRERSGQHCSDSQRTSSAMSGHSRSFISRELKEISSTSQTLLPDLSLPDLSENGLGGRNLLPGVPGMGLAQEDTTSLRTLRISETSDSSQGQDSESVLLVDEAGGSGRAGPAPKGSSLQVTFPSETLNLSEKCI

Turning to `C[C@H](NC(=O)[C@H]1CC(F)(F)CCN1CCOc1ccccc1)c1ccc(C(=O)O)cc1` [Example 8, 4-((1S)-1-(((2R)-1-(2-phenoxyethyl)-4,4-difluoropiperidin-2-carbonyl)amino)ethyl)benzoic acid hydrochloride], the Ki is 3.68 ± 3.32 nM on human EP4 [1], above 14800 nM on human EP3 (isoform VI), 956 nM at human EP2 and above 12500 nM at human EP1. Further, the figures for the IC50 on human EP4 [2] and on human EP4 [3] were 1.76 ± 1.51 nM and 78.2 ± 61 nM, respectively.
